In patent US6673801B1, “Dihydroxyhexanoic acid derivatives” (Pfizer Inc., priority 1998, dated 2004) one finds melting point, solubility and Solubility data, which are given here for eleven compounds.

Series [1] is described as follows: Kinetic solubility assay (turbidometric, phosphate buffer). Conditions: pH 7, aqueous buffer, kinetic from dmso stock.
Method: (§1) Solubility of the compounds is determined at four fixed concentrations and is expressed as μg/mL. Solubility or insolubility is measured in phosphate buffer using a turbidometric plate reader by automated micro addition of a compound predissolved in DMSO. Solubilities at 50, 100, 200 and 250 or 100, 200, 400 and 500 micrograms/mL can be determined by predissolving 1 mg of compound in sufficient DMSO to reach an initial concentration of 20 or 40 μg/uL.
(§2) A spectramax 250 UV transparent 96 well microplate is filled with 200 uL of Stock pH 7 phosphate buffer solution. A series of 25 absorption readings in a 5 by 5 matrix at a wavelength of 492 nm are taken for each well in the microplate containing pH buffer alone. This scan is to be used as a “blank”, and the raw optical dispersion (OD) values are used as a baseline.
(§3) Compounds in DMSO solution are then added (column wise) down the microplate. Up to twenty four samples are assayed with each compound being placed in four contiguous wells column wise. Each column of the microplate contains four concentrations of compound in ascending concentration and ascending row order (A-D), or row (E-H). […] The plate is then shaken for 20 minutes to allow for mixing.
(§4) After compound addition, a second scan consisting of a series of 25 absorption readings in a 5 by 5 matrix are taken for each well in the microplate at the same wavelength as the first blank scan. The raw compound OD values for each reading in the 5 by 5 matrix are subtracted from the corresponding “blank” values in the 5 by 5 matrix to provide the raw solubility OD data.
(§5) Data obtained from the Tecan SLT Spectra Image Reader is then analyzed using a Visual Basic computer program (or can be calculated manually according to methods well known to those of ordinary skill in the art), so as to provide solubility data for each compound.
For series [2] the following is noted: pH 7.
Method: as §1, §2, §3, §4, §5

What is called melting point is the temperature, or range, at which the solid turns liquid. In general, solubility refers to the concentration that dissolves in the medium under given conditions. The low end stands for a poorly soluble substance, the high end for a readily soluble substance.

For the compound `CC(C)(O)CC[C@H](C[C@H](O)[C@H](Cc1cccc2ccccc12)NC(=O)c1cnc2ccccc2n1)C(N)=O` [Example 12, Quinoxaline-2-carboxylic acid (4(R)-carbamoyl-2(S),7-dihydroxy-7-methyl-1(S)-naphthalen-1-ylmethyl-octyl)-amide], the melting point is 155 to 158 °C. For the same compound, the solubility at 20 min in series [1] is greater than 250 µg/mL. With `CC(C)(O)CC[C@H](C[C@H](O)[C@H](Cc1ccccc1)NC(=O)c1cnc2ccccc2n1)C(=O)NO` [Example 6, Quinoxaline-2-carboxylic acid (1(S)-benzyl-2(S),7-dihydroxy-4(R)-hydroxycarbamoyl-7-methyl-octyl)-amide], the melting point lay in the range of 108 to 110 °C. In series [1], this compound had a solubility at 20 min greater than 250 µg/mL. The compound `CC(C)(O)CC[C@H](C[C@H](O)[C@H](Cc1cccs1)NC(=O)c1cnc2ccccc2n1)C(N)=O` [Example 1, QUINOXALINE-2-CARBOXYLIC ACID (4(R)-CARBAMOYL-2(S),7-DIHYDROXY-7-METHYL-1(S)-THIOPHEN-2-YLMETHYL-OCTYL)-AMIDE] showed a solubility at 20 min in series [1] greater than 250 µg/mL. `CC(C)(O)CC[C@H](C[C@H](O)[C@H](Cc1ccccc1F)NC(=O)c1cnc2ccccc2n1)C(N)=O` [Example 9, Quinoxaline-2-carboxylic acid [4(R)-carbamoyl-1(S)-(2-fluoro-benzyl)-2(S),7-dihydroxy-7-methyl-octyl]-amide]: the melting point was 147 to 148 °C. The compound further showed a solubility at 20 min in series [1] greater than 250 µg/mL. Turning to `CNC(=O)[C@H](CC(C)C)C[C@H](O)[C@H](Cc1ccc2ccccc2c1)NC(=O)c1cnc2ccccc2n1` [Example 127, quinoxaline-2-carboxylic acid (2(S)-hydroxy-6-methyl-4(R)-methylcarbamoyl-1(S)-naphthalen-2-ylmethyl-heptyl)-amide, reference compound], the solubility at 20 min in series [1] is less than 5 µg/mL. As for `CC(C)(O)CC[C@H](C[C@H](O)[C@H](Cc1ccccc1)NC(=O)c1cnc2c(F)c(F)c(F)cc2c1)C(N)=O` [Example 5, 6,7,8-Trifluoro-quinoline-3-carboxylic acid (1(S)-benzyl-4(R)-carbamoyl 2(S),7-dihydroxy-7-methyl-octyl)-amide], the melting point is 185 to 188 °C. Further, the solubility at 20 min in series [1] is greater than 250 µg/mL. `CC(C)(O)CC[C@H](C[C@H](O)[C@H](Cc1ccccc1F)NC(=O)c1cnc2ccccc2n1)C(=O)NO` [Example 8, Quinoxaline-2-carboxylic acid [1(S)-(2-fluoro-benzyl)-2(S),7-dihydroxy-4(R)-hydroxycarbamoyl-7-methyl-octyl]-amide] registered a melting point of 130 to 131 °C. The compound further yielded a solubility at 20 min in series [1] greater than 250 µg/mL. On the same counts, the results for `CC(C)(O)CC[C@H](C[C@H](O)[C@H](Cc1ccc(F)c(F)c1)NC(=O)c1cnc2ccccc2n1)C(N)=O` [Example 11, Quinoxaline-2-carboxylic acid [4(R)-carbamoyl-1(S)-(3,4-difluoro-benzyl)-2(S),7-dihydroxy-7-methyl-octyl]-amide] are 110 to 120 °C and greater than 250 µg/mL. In series [1], `CC(C)(O)CC[C@H](C[C@H](O)[C@H](Cc1ccccc1Cl)NC(=O)c1cnc2ccccc2n1)C(N)=O` [Example 7, Quinoxaline-2-carboxylic acid [4(R)-carbamoyl-1(S)-(2-chloro-benzyl)-2(S),7-dihydroxy-7-methyl-octyl]-amide] yielded a solubility at 20 min greater than 250 µg/mL.

`CC(C)(O)CC[C@H](C[C@H](O)[C@H](Cc1ccc(F)c(F)c1)NC(=O)c1cnc2ccccc2n1)C(=O)NO` [Example 10, Quinoxaline-2-carboxylic acid [1(S)-(3,4-difluoro-benzyl)-2(S),7-dihydroxy-4(R)-hydroxycarbamoyl-7-methyloctyl]-amide]: the melting point is 150 to 153 °C. This compound also came in with a solubility at 20 min in series [1] greater than 200 µg/mL. `CC(C)(F)CC[C@H](C[C@H](O)[C@H](Cc1ccccc1)NC(=O)c1cnc(Cl)c(Cl)c1)C(N)=O` [Example 247]: the Solubility result in series [2] is “less than 5 μg/mL”.
